Test results as given in patent US6887468B1 (Board of Regents, The University of Texas System, priority 1999, dated 2005).

Key:
A673 rhabdomyosarcoma = test: In vivo tumor growth inhibition, newly-implanted A673 rhabdomyosarcoma; parameters: species or system nu/nu mice
Protocol: (§1) FIG. 3A and FIG. 3B. […] FIG. 3A: 1×10^7 NCI-H358 NSCLC cells were injected subcutaneously into nu/nu mice on day 0. FIG. 3B: 5×10^6 A673 rhabdomyosarcoma cells were injected subcutaneously into nu/nu mice on day 0. Mice were injected i.p. with the indicated IgG on day 1 and 2 times/week thereafter. […] Tumors were measured 2-3 times per week. Mean and standard error is shown for the duration of the study in FIG. 3A, while data for the last day of the study (day 26) is shown in FIG. 3B.
(§2) Nu/nu mice were injected subcutaneously with either 1×10^7 NCI-H358 NSCLC cells or 5×10^6 A673 rhabdomyosarcoma cells on day 0. […] The tumors were then measured twice per wk for a period of approximately six wk for the NCI-H358 bearing mice and four wk for the A673 bearing mice. Tumor volume was calculated according to the formula: volume=L×W×H, where L=length, W=width, H=height.

NCI-H358 NSCLC = test: In vivo tumor growth inhibition, newly-implanted NCI-H358 NSCLC; parameters: species or system nu/nu mice
Protocol: as §1, §2

VEGFR2 = test: VEGF-induced phosphorylation of VEGFR2 in PAE/KDR cells (immunoprecipitation, western blot); assay type: cell-based, porcine aortic endothelial cells transfected with VEGFR2; conditions: antibody 100 nM
Protocol: PAE/KDR, PAE/FLT, and bEND.3 cells were grown to 80-90% confluency in 100 mm tissue dishes in media containing 5% serum. The cells were then serum starved for 24 hours in media containing 0.1% serum. After pretreatment with 100 […] in PBS for 30 min, the cells were incubated with 5 nM (200 ng/ml) VEGF165, 5 nM (100 ng/ml) bFGF (R&D Systems, Minneapolis, Minn.), or A673 tumor conditioned media in the presence or absence of control or test antibodies for additional 15 min.
The cells were then washed with ice-cold PBS containing 10 mM EDTA, 2 mM sodium fluoride, and 2 mM sodium orthovanadate and lysed in lysis buffer (50 mM Tris, 150 mM NaCl, 1% Nonidet P40, 0.25% sodium deoxycholate, 0.1% CHAPS, 5 mM EDTA, 1.5 mM MgCl2, 2 mM sodium fluoride, 2 mM sodium orthovanadate, 10% glycerol and protease inhibitors (Complete Protease Inhibitor Cocktail tablets, Boehringer Mannheim)). The lysates were clarified by centrifugation and resulting supematant used for immunoprecipitation.
The reactions using the chicken anti-FLT-1 antibody were subsequently incubated with a bridging goat anti-chicken antibody (Kirkegaard and Perry Laboratories, Inc.) for 1 h at 4° C. […]

[1] = system: NCI-H358 NSCLC and HT29 colon adenocarcinoma xenografts and normal organs; test: In vivo localization in mice bearing human tumor xenografts (immunohistochemistry 24 h after i.v. injection); parameters: species or system mouse
Protocol: Tumors were grown subcutaneously in immunocompromised mice (NCI-H358 NSCLC in nu/nu mice and HT29 colon adenocarcinoma in SCID mice) until the tumor volume was approximately 1 cm^3. 100 μg of unlabeled antibody for studies using SCID mice, or 100 μg of biotinylated antibody for studies using nude mice, was injected intravenously via a tail vein. Twenty four hours later, the mice were anesthetized, perfused with PBS, and tumor and organs including heart, lungs, liver, kidneys, intestines and spleen were collected and snap frozen in liquid nitrogen.
The tumor and organs from each mouse were sectioned on a cryostat and stained for antibody immunohistochemically as above, with the exception that sections from the nude mice were developed using peroxidase labeled streptavidin-biotin complex (Dako, Carpinteria, Calif.) and the sections from the SCID mice were developed using two peroxidase-conjugated secondary antibodies, a goat anti-mouse IgG+IgM followed by a rabbit anti-goat IgG.
100 μg of GV39M and 3E7 or isotype-matched control IgG were injected into SCID mice bearing HT29 human colonic adenocarcinomas. Twenty-four hours later, the mice were sacrificed, exsanguinated and the tumors and tissues were removed.

KDR = test: 125I-VEGF binding studies on KDR expressing endothelial cells (ABAE cells); parameters: species or system bovine
[2] = system: VEGF-mediated growth of ABAE cells; test: Endothelial cell growth assay (MTS), VEGF-mediated growth of ABAE cells; assay type: cell-based, bovine; conditions: summary table
Protocol: ABAE cells were grown in the presence of the various indicated antibodies and 0.5 nM VEGF. Growth after 4 days was determined colorimetrically by the enzymatic conversion of MTS (Owen's reagent) to a yellow formazan. […] Background was determined by growing cells without VEGF or antibody and was subtracted from the control and sample wells.
Adult bovine aortic endothelial (ABAE) cells were plated into 96-well tissue culture plates at 1500 cells/well and grown in the presence of 0.5 nM human VEGF with the addition of the various sample and control antibodies. Control wells received media with or without VEGF.
After 4 days of incubation, the cells were quantified by an MTS (3-(4,5-dimethylthiazol-2-yl)-5-(3-carboxylmethoxyphenyl)-2-(4-sulfophenyl)-2H-tetrazolium, inner salt) conversion assay, where MTS conversion to a formazan is proportional to cell number and can be followed by absorbance at 490 nm (Cell Titer 96 AQueous One Solution Cell Proliferation Assay, Promega, Madison, Wis.). The assay was performed according to the manufacturer's instructions.
Cell growth was estimated by subtracting the MTS conversion in cultures to which VEGF was not added. Results were expressed as a percentage of the MTS conversion in control cultures to which only VEGF was added (Buttke et al., 1993).

[3] = target: T1, denatured VEGF121 and VEGF165 (Homo sapiens, UniProt P15692); test: Western blot analysis of anti-VEGF antibodies; assay type: binding; conditions: reducing and non-reducing conditions
T1 sequence (P15692 27-191 isoform P15692-4): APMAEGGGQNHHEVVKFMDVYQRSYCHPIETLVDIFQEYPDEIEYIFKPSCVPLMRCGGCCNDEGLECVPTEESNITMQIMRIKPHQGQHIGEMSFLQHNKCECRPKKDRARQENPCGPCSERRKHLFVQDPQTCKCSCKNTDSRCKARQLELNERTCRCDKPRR
Protocol: The nitrocellulose membrane was blocked using Sea-Block PP82-41 (East Coast Biologics, Berwick, Me.), and probed with primary antibodies using a mini-blotter apparatus (Immunetics, Cambridge, Mass.). The membranes were developed after incubation with the appropriate peroxidase-conjugated secondary antibody by ECL enhanced chemiluminescence.
Western blot analyses of anti-VEGF antibodies were conducted by separating VEGF165 in the presence of 5% FCS using SDS-PAGE on a 12% gel and analyzing by a standard western blotting protocol using ECL detection. The primary antibodies were incubated with the nitrocellulose membrane using a multi-lane mini-blotter apparatus.

[4] = target: T2, VEGF alone or VEGF associated with sFlk-1 (VEGF:Flk-1) (Homo sapiens, UniProt P15692); test: Indirect and capture ELISA for reactivity with VEGF alone or VEGF associated with sFlk-1; assay type: binding; conditions: VEGF alone or VEGF:Flk-1
T2 sequence (P15692 27-191 isoform P15692-4): T1 sequence (P15692 27-191 isoform P15692-4)
Protocol: The Flk-1/SEAP protein was produced and purified as described by Tessler etal. (1994). Basically, the extracellular domain of Flk-1 (sFlk-1) was produced in Spodoptera frugiperda (Sf9) cells and purified by immunoaffinity techniques utilizing a monoclonal anti-Flk-1 antibody (1A8). sFlk-1 was then biotinylated and bound on avidin-coated plates.
The reactivity was determined as described above for the initial screening.
A capture ELISA was also developed. In the capture ELISA, microtiter plates were coated overnight at 4° C. with 100 ng of the indicated antibody. […] Streptavidin conjugated to peroxidase (Kirkegaard & Perry Laboratories, Inc.), diluted 1:2000, was used as a second layer and developed.

[5] = 100 μg i.p. 2 times per wk from day 1, controls approximately 1000 mm^3

2C3: anti-VEGF monoclonal IgG2a,k from hybridoma ATCC PTA 1595; blocks VEGF binding to VEGFR2 but not VEGFR1
Final tumor volume (A673 rhabdomyosarcoma; [5]): approximately 150 mm^3
Effect on growth of A673 tumors, lower doses (A673 rhabdomyosarcoma; 10 or 1 μg twice per wk): did slow the growth of A673 tumors
Tumor growth retardation in NCI-H358 tumor model, lower dose (NCI-H358 NSCLC; 10 μg twice per wk): less marked
Final tumor volume (NCI-H358 NSCLC; [5]): approximately 150 mm^3
Blocking of VEGF-induced phosphorylation of VEGFR2 (VEGFR2): block VEGF-induced phosphorylation of VEGFR2 in PAE/KDR cells
Immunohistochemical Reactivity, Tumor ([1]; 24 hours after i.v. antibody, 3E7 and GV39M bound tumor vascular endothelium, 2C3 tumor stroma): 3+
In vivo localization in H358 human NSCLC tumor ([1]; biotinylated antibody, i.v., nu/nu mice): intense staining of connective tissue surrounding the vasculature
In vivo localization in HT29 human tumor model ([1]; mouse, in vivo): localized strongly to the connective tissue
In vivo normal mouse tissue localization ([1]; mouse, in vivo): None
Blocking of 125I-VEGF binding to KDR (KDR): blocks VEGF from binding to KDR in a concentration dependent manner
Blocks VEGF-induced proliferation [2]: Yes
Reactivity with VEGF on western blot [3]: react with denatured VEGF121 and VEGF165 under reducing and non-reducing conditions
Predominant Reactivity [4]: VEGF
